SMILES strings stand for the structures. “And” between values parts separate entries of the source, which are not always exact repeats. Identical values can stand only once.

This assay has as its system P. falciparum 3D7 growth, pLDH absorbance. Put plainly: blood-stage malaria parasite growth potency – strain 3D7, dose response (AID 2305).
`CCNc1cc(C(=O)N[C@@H](Cc2ccccc2)[C@H](O)CNC2(C)CCCCC2)cc(N2CCCCS2(=O)=O)c1`: the IC50 was 160 nM. `CC[C@]1(C)C[C@@H](NC(=O)NC(=O)c2ccc(OC)cc2)[C@]2(C)[C@H](C)CC[C@]3(CCC(=O)[C@H]32)[C@@H](C)[C@@H]1OC(=O)NC(=O)c1ccc(OC)cc1`: the IC50 is 990 nM. In the case of `O=C(C=C1c2ccccc2-c2ccccc21)NC1CCC(CN2CCC(c3c[nH]c4ccccc34)CC2)CC1` (stereo not drawn) it was 790 nM and 700 nM.

As for `NC1CCN(c2nc(NCCc3ccc(O)cc3)nc(NCc3ccccc3-c3ccc(C(F)(F)F)cc3)n2)CC1`, the IC50 was 750 nM. `Cc1ccc(Cn2c(N3CCC(C(=O)NCc4cccs4)CC3)nc3ccccc32)cc1`: the IC50 turned out to be 750 nM. Take `Cc1ccc(-n2nc(C)c3c2NC(=O)CSC3c2ccsc2)cc1` (stereo not drawn): the IC50 was 1010 nM.

For the compound `CC(Oc1ccc(C(=O)c2ccc(F)cc2)cc1)C(=O)N1CCc2ccccc21` (stereo not drawn), the IC50 amounted to 410 nM.

For `ON=C(c1nc2ccccc2[nH]1)c1nc2ccccc2[nH]1`, the half-inhibitory concentration (IC50) worked out at 1090 nM. Compound `COc1ccc(CNC2CCN(C)CC2)cc1-c1ccc(S(=O)(=O)NC2CCC2)s1` registered an IC50 of 730 nM.

For `c1ccc(CNCCn2c(-c3ccc4c(c3)CCO4)nc3c(N4CCCC4)cccc32)cc1`, the IC50 was found to be 1130 nM. With `NC1CCCN(Cc2cccc(-c3ccc(-c4nc5ccc(F)cc5[nH]4)cc3)c2)C1` (stereo not drawn), the IC50 was 570 nM. With `O=C(Nc1ccc([N+](=O)[O-])cc1O)Nc1ccccc1Oc1ccccc1` the figure was 930 nM; with `CCCCn1c(=N)c(C(=O)NCc2cccnc2)cc2c(=O)n3cccc(C)c3nc21`, 740 nM; with `C[C@H](NC(=O)c1cc(-c2ccc(C(C)(C)C)cc2)no1)C(=O)O` (tested in a mixture with another compound), 140 nM. In turn, `CCc1cccc2c(C#N)cn(CC(=O)NCCc3ccccc3)c12` yielded an IC50 of 890 nM. This IC50 is about 6.4-fold higher than that of the compound before.

`O=C(/C=C/c1ccc(Cl)c(Cl)c1)NC1CCC(N2CCC(c3c[nH]c4ccc(O)cc34)CC2)CC1` (stereo not drawn) returned an IC50 of 920 nM. This IC50 and that of the compound before are within 1.5-fold of each other. In turn, `Cc1cc(C(=O)NCc2ccc(-c3c(C)noc3C)cc2)n(-c2ccc(Cl)cc2)n1` displayed an IC50 of 530 nM. `O=C(/C=C/c1ccc(Cl)c(Cl)c1)NCCCCCN1CCCN(C(=O)Nc2cc(Cl)nc(Cl)c2)CC1` yielded an IC50 of 790 nM. Turning to `CCOC(=O)C(=O)N1c2ccc(OCC)cc2-c2c(ssc2=S)C1(C)C`, the IC50 was found to be 220 nM.

As to `CCN(CC)c1ccc(-c2nc3ncc(Cl)cc3[nH]2)cc1`, the concentration for half-maximal inhibition (IC50) came out at 1130 nM. With `CO/C(=C\C=C\c1cc2cc(Cl)c(Cl)cc2[nH]1)C(=O)NCCCN1CCN(c2cccc(Cl)c2)CC1`, the IC50 was 730 nM. This IC50 is about 1.5-fold lower than that of the compound before. With `COc1nc(-n2ccc(=N)cc2)nc2ccccc12`, the IC50 was found to be 1060 nM. `O=C(c1ccccc1[N+](=O)[O-])N(Cc1ccccc1)c1ccccn1` gave an IC50 of 190 nM. Compound `CCCc1cc(Cc2cnc(N)nc2N)cc(CC)c1OC` registered an IC50 of 820 nM. As to `O=C(Nc1n[nH]c2nc(-c3ccco3)c(Br)cc12)c1ccc(CN2CCCC2)cc1`, the IC50 is 790 nM. The compound `O=c1cc(NCCCNCc2cc(Cl)c(Cl)cc2Cl)[nH]c2ccccc12` came in with an IC50 of 970 nM. For the compound `CCC[C@@H]([C@@H](CC1CCC(C)CC1)C(=O)N[C@@H](CO)C(=O)Nc1nccs1)N(O)C=O` (stereo partly drawn), the IC50 came out at 320 nM. Compound `CCOc1ccc(C(=O)Nc2cc3c(c(C(F)(F)F)c2)CCNC3)cc1Cl` yielded an IC50 of 1060 nM. Regarding `CCCCOc1c(CNCCCCCCNCc2ccc3ccccc3c2OCCCC)ccc2ccccc12`, the half-inhibitory concentration (IC50) was 870 nM. The compound `O=C(Nc1cc(F)cc(F)c1)N1CCOC(CCN2CCC3(CCc4ccccc43)CC2)(c2ccc(Cl)c(Cl)c2)C1` (stereo not drawn) registered an IC50 of 280 nM. In the case of `COc1cccc(-c2cccc(CNC3CCN(CC4Cn5c(=O)ccc6ccc(F)c4c65)CC3)c2)c1` (stereo not drawn), the IC50 came to 930 nM. As to `Cc1cccc2[nH]c(-c3ccc(-c4cccc(NC(=O)C(C)CN5CCN(C)CC5)c4)cc3)nc12` (stereo not drawn), the IC50 was found to be 740 nM. The compound `COc1cc(-c2nc(-c3ccccc3)c(-c3ccccc3)[nH]2)cc(OC)c1O` displayed an IC50 of 770 nM. `Cc1cc(C(=O)NC2CCN(Cc3ccccc3)CC2)ccc1-c1nc2cc(Cl)c(Cl)cc2[nH]1`: the IC50 amounted to 960 nM.

As for `COc1ccc(CNCCCCCNCc2ccc(Cl)c(Cl)c2)cc1Cl`, the IC50 was 750 nM.

`CCCCCN1CCC(NC(=O)c2ccc(C(=O)Nc3ccc(C(C)C)cc3)cc2)C1` (stereo not drawn) came in with an IC50 of 950 nM. For the compound `c1cc(CN2CCN(CCN3CCOCC3)CC2)cc(-c2ccc(-c3nc4ccccc4[nH]3)cc2)c1`, the IC50 is 130 nM. For `O=C(/C=C/c1cccc(C(F)(F)F)c1)NCCCCCN1CCC(c2c[nH]c3ccccc23)CC1`, the IC50 amounted to 840 nM. Compared with the last compound, the IC50 is about 6.5-fold higher. As to `O=c1c2ccccc2[nH]c2nc3ccccc3c(Nc3ccccc3)c12`, the IC50 is 140 nM. `Cc1cc(CN2C(=O)C(c3ccccc3)(c3ccccc3)N=C2N)c(C(F)(F)F)o1` displayed a half-maximal inhibitory concentration (IC50) of 960 nM.

For `Nc1ncc(-c2ccsc2)c2ccc(-c3cc(NCc4ccccc4)ncn3)cc12`, the half-inhibitory concentration (IC50) came to 860 nM. This IC50 and that of the compound before are within 1.5-fold of each other. In turn, `Cc1ccc2c(NN=Cc3cccc(F)c3)cc(C)nc2c1` gave an IC50 of 860 nM. In turn, `COc1ccccc1CCNc1nccc(N[C@@H](Cc2ccccc2)C(=O)NCc2cccs2)n1` returned an IC50 of 870 nM.

Values taken from PubChem BioAssay AID2305 (GlaxoSmithKline (GSK), 2010).
